Consider 3 molecules from US9155289B2, “Methods concerning PPAR delta and antagonists thereof” (University Court of the University of Dundee, priority 2008, dated 2015).

For data set [1] the following is noted: cited from earlier work.
A further data set concerns PPARδ transgenic mice. As to the kind of experiment: Skin phenotype in PPARδ transgenic mice after PPARδ activation. The data set is classed as in vivo, mouse. How it is done: FIG. 5. Skin phenotype in PPARδ transgenic mice twenty days after beginning of GW501516 (GW) administration. (FIGS. 5a-5c) Gross morphology, (FIGS. 5d-5e) H&E histology of control mice not treated with GW (5d), or fourteen days after induction (5e-5g). Magnification 200× (5d,5e) or 400× (5f). (5g) Immunostaining for Ki67 of skin from PPARδ transgenic mice maintained in the absence (left) or presence (right) of GW. Magnification 200×. (5h) Induction of skin disease by topical application of either 0.3% of indole-3-carbinole (I3C, left) or I3C plus 0.3% GW501516 once daily to shaved abdominal skin. Gross macroscopic phenotype (top) and H&E histology of treated skin (bottom) was documented 10 days after beginning of treatment; and
Mice were generated which are inducible to overexpress human PPARδ in the skin and a wide range of other tissues and organs, including the spleen, under the control of the CYP1A1 promoter. The CYP1A1 dioxin-responsive promoter was initially chosen because it is known to be transactivated by the aryl hydrocarbon receptor (AHR) upon binding of specific AHR agonist ligands. (Campbell et al., Regulation of the CYP1A1 promoter in transgenic mice: an exquisitely sensitive on-off system for cell specific gene regulation, J. Cell Science, 1996, 109 (Pt. 11), 2619-2625).
The mice were generated by cloning full-length human PPARδ downstream of the human CYP1A1 promoter. Plasmids encoding human PPARδ were prepared by the following protocol. The coding sequences of PPARδ, were amplified using primers PRMG15 (5′-[…]-3′) and PR MG3 (5′-[…]-3′), respectively (XbaI-sites underlined, ATG start codon in bold). The PCR products were cleaved with XbaI and cloned in plasmid pUHD10-3 (M. Gossen, unpublished, Genbank accession number U89931) creating pMGD7 (PPARδ). The integrity of the inserts were confirmed by sequencing and cleaved out using BamHI and ligated into plasmid pAHIR1-β-gal (Campbell, 1996} cleaved with BglII, resulting in the plasmid pMGD72 (PPARδ). The proper orientations of the inserts were confirmed by restriction endonuclease analysis and sequencing. Transgenic mice were generated by microinjection of the expression unit (NotI fragment) of the plasmid pMGD72 into pro-nuclei of C57BL/J6×CBA F1 fertilized eggs. Mice were maintained under standard animal house conditions.
In a first study, indole-3-carbinole (I3C) introduced into the chow at a final concentration of 0.5% (w/w), for one week, was used to induce expression of PPARδ. The resulting translated protein was conformationally activated by the specific PPARδ ligand GW-501516 (2-Methyl-4-((4-methyl-2-(4-trifluoromethylphenyl)-1,3-thiazol-5-yl)-methylsulfanyl)phenoxy-acetic acid), added in powdered form to the chow at a concentration of 0.003% (w/w) for an additional 16 days. This activation mechanism is illustrated in FIG. 1. Thus, PPARδ can be transcriptionally activated and conformationally activated by concurrent feeding with I3C and GW-501516.

The subject of a further data set is unmodified mice. Put plainly: Control experiments in unmodified mice. The data set is classed as in vivo, mouse. The following applies: GW-501516 administered to unmodified mice. How it is done:
The mice were prepared for the purposes of studies concerning a wide range of cancer phenotypes and liver fat accumulation.

For another data set, the system named is human PPARδ. Conditions: mouse, in vivo. As for the experimental part: FIG. 2(a) illustrates Western blot analyses of 10 μg of total protein extract of transgenic mice fed I3C or control diet in an experiment in which PPARδ expression was induced in mice harbouring CYP1A1-controlled PPARδ by oral administration of indole-3-carbinol (I3C) for seven days (top); and an experiment in which PPARδ was expressed by feeding of I3C and activated by additional administration of the specific PPARδ ligand GW-501516 (GW) for 25 days (bottom); FIG. 2(b) is a close-up photograph of the macroscopic phenotype of mice receiving both I3C and GW-501516 administration; FIG. 2(c) is a photograph of standard H&E histology stains prepared from abdominal skin of the animals shown in FIG. 2(a);
FIG. 3 illustrates experimental results from arising from the inducible expression of PPARδ in mouse epidermis. FIG. 3(a) Cis-regulatory elements in the rat CYP1A1 promoter used to drive inducible expression of human PPARδ. Upper panel: Map of the sebaceous-specific G/C-box element and the AHR-responsive DXE/XRE cluster in the cyp1A1 promoter as well as the human K5 promoter. Bottom panel: ClustalW alignment of promoters identified by a BLAST search using the 20 bp G/C element of the Cyp1A1 promoter. All of the genes shown were found in the top 10% percentile of all transcripts expressed in human sebaceous glands (GDS3215 at the NCBI GEO website www.ncbi.nlm.nih.gov/geo/). FIG. 3(b) illustrates immunohistochemistry using anti-PPARδ of mice transgenic for human PPARδ driven by the rat CYP1A promoter (PPARδ TG), as well as wild type mice. Magnification 200×; FIG. 3(c) illustrates immunohistochemistry of abdominal skin samples from PPARδ transgenic mice taken at the indicated times after initiation of PPARδ activation mediated by administration of the synthetic ligand GW501516 in the chow; FIG. 3(d) illustrates PPARδ immunohistochemistry 48 h after topical application of indole-3-carbinole (I3C) to the skin of PPARδ transgenic mice at 200× (left) and 400× (right) magnification; […]

Regarding `COC(=O)c1sccc1S(=O)(=O)Nc1ccc(Nc2ccccc2)cc1OC` [GSK 0660, methyl 3-({[2-(methoxy)-4-phenyl]amino}sulfonyl)-2-thiophenecarboxylate], the in vivo bioavailability result in data set [1] is recorded as “lacks in vivo bioavailability”.
Regarding `Cc1cc(SCc2sc(-c3ccc(C(F)(F)F)cc3)nc2C)ccc1OCC(=O)O` [GW-501516, 2-Methyl-4-((4-methyl-2-(4-trifluoromethylphenyl)-1,3-thiazol-5-yl)-methylsulfanyl)phenoxy-acetic acid], in the data set with PPARδ transgenic mice (GW501516 alone, without I3C, as early as seven days after initiation), the “skin phenotype (scaling, erythema, skin thickening)” value was “scaling, erythema formation, and skin thickening was notable in all PPARδ transgenic mice”. Besides, in the data set on PPARδ transgenic mice (PPARδ induced by I3C feeding (0.5% w/w chow), activated by GW-501516 0.003% w/w in chow, after 25 days), the “skin phenotype (scaling, skin thickening, inflammation)” value is on record as “a dramatic skin phenotype was observed”. Further, the skin phenotype entry in the data set with PPARδ transgenic mice (topical I3C plus additional topical GW501516 (0.3% each, once daily, 10 days)) is “effectively replicated”. Besides, in the data set with unmodified mice, the psoriatic symptoms entry is listed as “no psoriatic symptoms were observed”. For the same molecule, in the data set with human PPARδ, the “PPARδ expression in the epidermis” value was “strong expression of PPARδ in the epidermis”.
Regarding `OCc1c[nH]c2ccccc12` [I3C, indole-3-carbinole], in the data set on PPARδ transgenic mice (prolonged chow with I3C 0.5% w/w, in the absence of PPARδ activation), the skin changes entry was “caused no skin changes”. In the data set on PPARδ transgenic mice (topical I3C alone to the skin), the skin phenotype entry is reported as “unable to elicit a phenotype”. In addition, in the data set with human PPARδ, the “PPARδ expression in skin” value is “inducible”; the “PPARδ expression in skin and lymph nodes” value is reported as “strong induction of PPARδ expression”.
